According to article PMC8704707 (Pharmaceuticals, 2021):
≈ marks a conversion by molar mass, not a printed value. Where “and” joins values, the source holds several entries; their conditions need not be identical. Identical values can stand only once. Counter-ions that a name gives are not always drawn. Like-named read-outs stand apart in the source and are kept apart here.

Legend:
[1] = tested on: Staphylococcus aureus ATCC 29213; assay: Antibacterial microdilution broth method (EUCAST); type: cell-based
[2] = tested on: methicillin-resistant Staphylococcus aureus ATCC 43300; assay: Antibacterial microdilution broth method (EUCAST); type: cell-based; details: ATCC 43300 / MRSA
[3] = tested on: Staphylococcus epidermidis ATCC 12228; assay: Antibacterial microdilution broth method (EUCAST); type: cell-based
[4] = tested on: Enterococcus faecalis ATCC 29212; assay: Antibacterial microdilution broth method (EUCAST); type: cell-based
[5] = tested on: Escherichia coli ATCC 25922; assay: Antibacterial microdilution broth method (EUCAST); type: cell-based
[6] = tested on: Acinetobacter baumannii ATCC 19606; assay: Antibacterial microdilution broth method (EUCAST); type: cell-based
[7] = tested on: Pseudomonas aeruginosa ATCC 27853; assay: Antibacterial microdilution broth method (EUCAST); type: cell-based
[8] = tested on: Candida albicans ATCC 24443; assay: microbe, parasite or virus in culture; type: cell-based
Candida krusei ATCC 6258 = assay: microbe, parasite or virus in culture; type: cell-based; details: Pichia kudriavzevii
[9] = tested on: Candida parapsilosis ATCC 22019; assay: microbe, parasite or virus in culture; type: cell-based; details: Lodderomyces parapsilosis
[10] = tested on: Candida tropicalis ATCC 750; assay: microbe, parasite or virus in culture; type: cell-based
[11] = tested on: Trichophyton interdigitale ATCC 9533; assay: microbe, parasite or virus in culture; type: cell-based
[12] = target: AChE from electric eel (EeAChE) (Electrophorus electricus, UniProt O42275); assay: biochemical; type: biochemical
[13] = target: BuChE from equine serum (EqBuChE) (Equus caballus, UniProt P81908); assay: biochemical
[14] = tested on: Klebsiella pneumoniae ATCC 10031; details: for MIC KP 24 h: 24 h incubation; for MIC KP 48 h: 48 h incubation
[15] = ATCC29213, 24 h, read-out: MIC SA 24 h
[16] = ATCC29213, 48 h, read-out: MIC SA 48 h
[17] = ATCC12228, 24 h, read-out: MIC SE 24 h
[18] = ATCC12228, 48 h, read-out: MIC SE 48 h
[19] = ATCC29212, 24 h, read-out: MIC EF 24 h
[20] = ATCC29212, 48 h, read-out: MIC EF 48 h
[21] = ATCC25922, 24 h, read-out: MIC EC 24 h
[22] = ATCC25922, 48 h, read-out: MIC EC 48 h
[23] = ATCC19606, 24 h, read-out: MIC ACI 24 h
[24] = ATCC19606, 48 h, read-out: MIC ACI 48 h
[25] = ATCC27853, 24 h, read-out: MIC PA 24 h
[26] = ATCC27853, 48 h, read-out: MIC PA 48 h
[27] = mean ± SD, n = three independent experiments, ATCh 40 µM, read-out: IC50 AChE
[28] = mean ± SD, n = three independent experiments, BTCh 40 µM, read-out: IC50 BuChE

Sequence of BuChE from equine serum (EqBuChE) (P81908 whole entry): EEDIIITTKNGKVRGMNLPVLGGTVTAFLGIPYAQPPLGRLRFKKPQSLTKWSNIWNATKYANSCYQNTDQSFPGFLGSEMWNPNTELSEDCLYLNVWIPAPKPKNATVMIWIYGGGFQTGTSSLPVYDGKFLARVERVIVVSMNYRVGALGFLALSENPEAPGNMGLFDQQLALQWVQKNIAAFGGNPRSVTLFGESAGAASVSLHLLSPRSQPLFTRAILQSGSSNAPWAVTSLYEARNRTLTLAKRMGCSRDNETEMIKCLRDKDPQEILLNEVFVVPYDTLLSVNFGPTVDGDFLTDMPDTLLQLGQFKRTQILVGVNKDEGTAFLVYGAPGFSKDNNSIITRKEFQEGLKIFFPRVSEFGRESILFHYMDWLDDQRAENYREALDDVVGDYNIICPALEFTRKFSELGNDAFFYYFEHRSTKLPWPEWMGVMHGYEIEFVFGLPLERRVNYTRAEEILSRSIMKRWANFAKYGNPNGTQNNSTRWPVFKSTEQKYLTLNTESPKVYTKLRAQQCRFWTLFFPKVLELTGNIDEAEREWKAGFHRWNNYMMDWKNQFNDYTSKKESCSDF
Sequence of AChE from electric eel (EeAChE) (O42275 24-633): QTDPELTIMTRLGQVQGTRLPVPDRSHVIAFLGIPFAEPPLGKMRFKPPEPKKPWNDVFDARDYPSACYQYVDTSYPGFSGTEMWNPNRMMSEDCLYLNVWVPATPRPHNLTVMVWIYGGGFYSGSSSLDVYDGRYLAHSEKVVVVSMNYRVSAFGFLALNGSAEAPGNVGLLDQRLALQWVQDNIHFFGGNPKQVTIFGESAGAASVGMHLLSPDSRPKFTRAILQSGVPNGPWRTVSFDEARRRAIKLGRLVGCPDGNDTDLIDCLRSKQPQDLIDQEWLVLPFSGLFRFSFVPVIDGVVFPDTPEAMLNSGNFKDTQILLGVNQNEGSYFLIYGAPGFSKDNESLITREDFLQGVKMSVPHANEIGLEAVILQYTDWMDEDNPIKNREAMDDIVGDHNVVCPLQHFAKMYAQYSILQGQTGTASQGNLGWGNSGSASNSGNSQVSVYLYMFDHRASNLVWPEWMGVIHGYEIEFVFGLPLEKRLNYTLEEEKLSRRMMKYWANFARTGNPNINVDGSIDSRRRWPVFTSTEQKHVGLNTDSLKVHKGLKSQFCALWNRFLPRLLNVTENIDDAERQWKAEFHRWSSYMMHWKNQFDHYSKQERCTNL

SMILES | MIC [1, 15] [µM] | MIC [1, 16] [µM] | MIC ([2]; 24 h, read-out: MIC MRSA 24 h) [µM] | MIC ([2]; 48 h, read-out: MIC MRSA 48 h) [µM] | MIC [3, 17] [µM] | MIC [3, 18] [µM] | MIC [4, 19] [µM] | MIC [4, 20] [µM] | MIC [5, 21] [µM] | MIC [5, 22] [µM] | MIC [6, 23] [µM] | MIC [6, 24] [µM] | MIC [7, 25] [µM] | MIC [7, 26] [µM] | Selectivity AChE/BuChE [12] | IC50 [12, 27] [µM] | IC50 [13, 28] | MIC KP 24 h [14] [µM] | MIC KP 48 h [14] [µM] | IC50 [12] [µM] | further results
[H]/N=C(\N)NN=Cc1ccc([N+](=O)[O-])s1 [Compound 1o, (E)-2-[(5-Nitrothiophen-2-yl)methylene]hydrazine-1-carboximidamide] | 125 (≈ 26.7 µg/mL) | 250 (≈ 53.3 µg/mL) | 125 (≈ 26.7 µg/mL) | 250 (≈ 53.3 µg/mL) | 62.5 (≈ 13.3 µg/mL) | 62.5 (≈ 13.3 µg/mL) | 250 (≈ 53.3 µg/mL) | 500 (≈ 107 µg/mL) | 62.5 (≈ 13.3 µg/mL) | 62.5 (≈ 13.3 µg/mL) | 125 (≈ 26.7 µg/mL) | 125 (≈ 26.7 µg/mL) | 500 (≈ 107 µg/mL) | 500 (≈ 107 µg/mL) | 0.11 | 31.7 ± 1.34 | 204 to 286 µM and 286 µM | 125 (≈ 26.7 µg/mL) | 125 (≈ 26.7 µg/mL) | – | MIC ([8]; ATCC24443, 24 h, read-out: MIC CA 24 h): > 500 µM; MIC ([8]; ATCC24443, 48 h, read-out: MIC CA 48 h): > 500 µM; MIC (Candida krusei ATCC 6258; ATCC6258, 24 h, read-out: MIC CK 24 h): 500 µM (≈ 107 µg/mL); MIC (Candida krusei ATCC 6258; ATCC6258, 48 h, read-out: MIC CK 48 h): 500 µM (≈ 107 µg/mL); MIC ([9]; ATCC22019, 24 h, read-out: MIC CP 24 h): > 500 µM; MIC ([9]; ATCC22019, 48 h, read-out: MIC CP 48 h): > 500 µM; MIC ([10]; ATCC750, 24 h, read-out: MIC CT 24 h): > 500 µM; MIC ([10]; ATCC750, 48 h, read-out: MIC CT 48 h): > 500 µM; MIC ([11]; ATCC9533, 72 h, read-out: MIC TI 72 h): 250 µM (≈ 53.3 µg/mL); MIC ([11]; ATCC9533, 120 h, read-out: MIC TI 120 h): 250 µM (≈ 53.3 µg/mL)
[H]/N=C(\N)NN=Cc1ccc(Cl)cc1O [Compound 1f, (E)-2-(4-Chloro-2-hydroxybenzylidene)hydrazine-1-carboximidamide] | 500 (≈ 106 µg/mL) | 500 (≈ 106 µg/mL) | 500 (≈ 106 µg/mL) | 500 (≈ 106 µg/mL) | 125 (≈ 26.6 µg/mL) | 125 (≈ 26.6 µg/mL) | 500 (≈ 106 µg/mL) | 500 (≈ 106 µg/mL) | 500 (≈ 106 µg/mL) | 500 (≈ 106 µg/mL) | 500 (≈ 106 µg/mL) | 500 (≈ 106 µg/mL) | 500 (≈ 106 µg/mL) | 500 (≈ 106 µg/mL) | 1.40 | 42.8 ± 1.33 | 30.6 ± 1.51 µM | 500 (≈ 106 µg/mL) | 500 (≈ 106 µg/mL) | – | –
[H]/N=C(\N)NN=Cc1cc(Cl)ccc1O [Compound 1g, (E)-2-(5-Chloro-2-hydroxybenzylidene)hydrazine-1-carboximidamide] | 250 (≈ 53.2 µg/mL) | 250 (≈ 53.2 µg/mL) | 500 (≈ 106 µg/mL) | 500 (≈ 106 µg/mL) | 62.5 (≈ 13.3 µg/mL) | 62.5 (≈ 13.3 µg/mL) | 125 (≈ 26.6 µg/mL) | 250 (≈ 53.2 µg/mL) | 500 (≈ 106 µg/mL) | 500 (≈ 106 µg/mL) | 500 (≈ 106 µg/mL) | 500 (≈ 106 µg/mL) | 500 (≈ 106 µg/mL) | 500 (≈ 106 µg/mL) | 0.83 | 37.4 ± 0.73 | 45.2 ± 0.86 µM | 500 (≈ 106 µg/mL) | 500 (≈ 106 µg/mL) | – | –
[H]/N=C(\N)NN=Cc1cccc(Cl)c1 [Compound 1c, (E)-2-(3-Chlorobenzylidene)hydrazine-1-carboximidamide] | – | – | – | – | – | – | – | – | – | – | – | – | – | – | 1.06 | – | 41.5 ± 3.06 µM | – | – | 43.9 ± 0.76 | –
N=C(N/N=C/c1ccc([N+](=O)[O-])o1)N/N=C/c1ccc([N+](=O)[O-])o1 [Compound 3c, (E)-2-[(5-Nitrofuran-2-yl)methylene]-N’-[(E)-(5-nitrofuran-2-yl)methylene]hydrazine-1-carboximidamide hydrochloride] | – | – | – | – | – | – | – | – | – | – | – | – | – | – | <0.08 | – | – | – | – | 40 ± 2.56 | IC50 ([13]; IC50 BuChE): > 500 µM
[H]/N=C(\N)NN=Cc1c(O)cccc1Cl [Compound 1h, (E)-2-(6-Chloro-2-hydroxybenzylidene)hydrazine-1-carboximidamide] | 250 (≈ 53.2 µg/mL) | 500 (≈ 106 µg/mL) | > 500 | > 500 | 125 (≈ 26.6 µg/mL) | 250 (≈ 53.2 µg/mL) | > 500 | > 500 | > 500 | > 500 | 500 (≈ 106 µg/mL) | 500 (≈ 106 µg/mL) | > 500 | > 500 | 0.47 | 29.5 ± 0.93 | 62.3 ± 1.08 µM | >500 | >500 | – | –
